Test results from US7037665B1, “Compositions comprising SNORF36 receptor compounds” (H. Lundbeck A/S, priority 1999, dated 2006).
Entries after “also recorded” stand apart in the source; their conditions may differ.

Legend:
SNORF36a [1] = molecular target: T1, SNORF36a (Homo sapiens, UniProt Q9UHM6); assay: Intracellular Ca2+ mobilization (FLIPR) in human SNORF36a-transfected Cos-7 cells; format: cell-based; conditions: for EC50: photobleached SNORF36a-transfected Cos-7 cells, FLIPR, n=3
T1 sequence (Q9UHM6 1-478): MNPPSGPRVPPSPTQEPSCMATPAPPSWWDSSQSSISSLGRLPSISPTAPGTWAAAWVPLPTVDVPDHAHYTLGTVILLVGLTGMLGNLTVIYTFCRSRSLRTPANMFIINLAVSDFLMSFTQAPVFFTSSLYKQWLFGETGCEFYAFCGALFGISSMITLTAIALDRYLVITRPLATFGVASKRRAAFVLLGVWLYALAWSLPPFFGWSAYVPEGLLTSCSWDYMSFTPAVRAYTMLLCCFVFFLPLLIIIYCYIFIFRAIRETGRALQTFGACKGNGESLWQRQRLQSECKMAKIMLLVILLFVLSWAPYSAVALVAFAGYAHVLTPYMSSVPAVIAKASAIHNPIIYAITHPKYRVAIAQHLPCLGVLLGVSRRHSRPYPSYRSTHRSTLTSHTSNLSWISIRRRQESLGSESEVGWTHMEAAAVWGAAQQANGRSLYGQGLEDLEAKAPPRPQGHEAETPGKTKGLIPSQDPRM
Method: The intracellular free calcium (Ca^2+) concentration may be measured by the Fluorescence Imager Plate Reader (FLIPR™).
Cells transfected with appropriate DNA as described earlier were plated into clear, flat-bottom, black-wall 96-well plates (Costar) at a density of 80,000-150,000 cells per well and allowed to incubate for 24 hr at 5% CO2, 37° C. Whenever necessary, the cells were placed in a waterbath maintained at 37° C. and were exposed to a lamp light (50W) placed at a distance of approximately 30 cm, 90 to 120 min before the imaging. The growth medium was aspirated and 100 μl of loading medium containing fluo-3 dye was added to each well 60 min before the imaging. The loading medium contained: Hank's BSS (without phenol red) (Gibco), 20 mM HEPES (Sigma), 0.1 or 1% BSA (Sigma), dye/pluronic acid mixture (e.g. 1 mM Flou-3, AM (Molecular Probes) and 10% pluronic acid (Molecular Probes) mixed immediately before use), and 2.5 mM probenecid (Sigma) (prepared fresh). The cells were allowed to incubate for about 1 hour at 5% CO2, 37° C.
Before or during the incubation of cells with the dye-loading medium, the test compound plate was prepared. Since retinoids are chemically unstable and can undergo rapid photoisomerization (Hu et al., 1994), care was taken to weigh, dissolve and prepare appropriate concentrations of the test compound under photographic darkroom lights. The test compounds were diluted in wash buffer (Hank's BSS (without phenol red), 20 mM HEPES, 2.5 mM probenecid) to a 4× final concentration and aliquoted into a clear v-bottom plate (Nunc). The test compounds were protected from light till their addition to cells. Following the incubation with the dye-loading medium, the cells were washed to remove the excess dye. A Denley plate washer was used to gently wash the cells 4 times and leave a 100 μl final volume of wash buffer in each well. The cell plate was placed in the center tray and the test compound plate was placed in the right tray of the FLIPR. The FLIPR software was setup for the experiment, the experiment was run and the data were collected. For the agonist experiment, the sampling rate in the FLIPR was every 1 sec for the first minute and every 2 sec for the next two minutes. In this paradigm, the test compound was added after recording base line for the first 10 sec. For the antagonist experiment, the sampling rate in the FLIPR was every 1 sec for the first minute, every 6 sec for the next 5 minutes, every 1 sec for the next one minute followed by every 2 sec next two minutes. To evaluate the antagonist activity, the test compound was added to the cells 10 sec after commencing the recording and the agonist was added at 310 sec of the recording. Baseline subtraction and negative control corrections were performed on the traces. The collected data were then analyzed using the Excel spreadsheet program.

SNORF36a [2] = molecular target: T1, SNORF36a; assay: Light-elicited currents in voltage-clamped Xenopus oocytes expressing SNORF36a; format: cell-based; design: expressed in transfected cells; host or cells: Xenopus laevis oocytes injected with synthetic mRNA transcribed from plasmid BO109; conditions: pre-incubated in the dark 24-48 h at 100 nM in ND96
Method: (§1) In the present invention, oocytes were harvested from Xenopus laevis and injected with mRNA transcripts as previously described (Quick and Lester, 1994; Smith et al., 1997). SNORF36a RNA transcripts were synthesized using the T7 polymerase (“Message Machine”, Ambion) from the plasmid BO109 linearized with NotI. Oocytes were injected with 5-25 ng synthetic RNA and incubated for 3-8 days at 17° C. Dual electrode voltage clamp (Axon Instruments Inc.) was performed using 3 M KCl-filled glass microelectrodes having resistances of 1-2 MOhm. Unless otherwise specified, oocytes were voltage clamped at a holding potential of −80 mV. During recordings, oocytes were bathed in continuously flowing (1-3 ml/min) medium containing 96 mM NaCl, 2 mM KCl, 1.8 mM CaCl2, 1 mM MgCl2, 5 mM HEPES, pH 7.5 (ND96), and the appropriate ligand.
Experiments were carried out under minimal light conditions which required compound weighing, final dilutions and oocyte recordings to be performed under photographic darkroom lights (“Brightlab Junior” safelight). In some cases, the ligands were briefly exposed to room light (5-10 min.) during the weighing procedure. For eliciting physiological responses from oocytes, the light stimulus was a 60 W tungsten lamp set at a distance of 30 cm from the oocyte. Drugs were applied either by superfusion, switching from a series of gravity fed perfusion lines, or by local perfusion from a 10 μl glass capillary tube fixed at a distance of 0.5 mm from the oocyte. Experiments were carried out at room temperature. All values are expressed as mean ± standard error of the mean.

[3] = test system: Control oocytes, not injected with SNORF36a mRNA; assay: Light-elicited currents in control Xenopus oocytes not injected with SNORF36a mRNA; format: cell-based, Xenopus laevis; conditions: control uninjected oocytes pre-incubated with ligand (100 nM, 24 h), n=10 oocytes
Method: as §1
Experiments were carried out under minimal light conditions which required compound weighing, final dilutions and oocyte recordings to be performed under photographic darkroom lights (“Brightlab Junior” safelight). In some cases, the ligands were briefly exposed to room light (5-10 min.) during the weighing procedure. For eliciting physiological responses from oocytes, the light stimulus was a 60 W tungsten lamp set at a distance of 30 cm from the oocyte. […] All values are expressed as mean ± standard error of the mean.

[4] = test system: vector-transfected Cos-7 cells; assay: Inositol phosphate assay in empty vector-transfected Cos-7 cells; format: cell-based; conditions: vector-transfected Cos-7 cells exposed to lamp light
Method: (§2) Human SNORF36a receptor-mediated activation of the inositol phosphate (IP) second messenger pathways was assessed by radiometric measurement of IP products.
(§3) Cells were plated at a density of 70,000 cells per well and allowed to incubate for 24 hours. The cells were then labeled with 0.5 μCi [^3H]myo-inositol overnight at 37° C., 5% CO2. Immediately before the assay, the medium was removed and replaced with 180 μL of Phosphate-Buffered Saline (PBS) containing 10 mM LiCl. The plates were then incubated for 20 min at 37° C., 5% CO2. Following the incubation, the cells were challenged with agonist (20 μl/well; 10× concentration) for 30 min at 37° C. and were simultaneously either exposed or not to a lamp light (50W) placed at approximately 30 cm distance from the cells. The challenge was terminated by the addition of 100 μL of 5% v/v trichloroacetic acid, followed by incubation at 4° C. for greater than 30 minutes. Total IPs were isolated from the lysate by ion exchange chromatography. Briefly, the lysed contents of the wells were transferred to a Multiscreen HV filter plate (Millipore) containing Dowex AGI-X8 (200-400 mesh, formate form). The filter plates were prepared adding 100 μL of Dowex AG1-X8 suspension (50% v/v, water: resin) to each well. […] 200 μL of scintillation cocktail was added to each well, and the radioactivity was determined by liquid scintillation counting.

SNORF36a [5] = molecular target: T1, SNORF36a; assay: Inositol phosphate assay (phosphoinositide hydrolysis) in human SNORF36a-transfected Cos-7 cells; format: cell-based
Method: as §2, §3

[6] = antagonist at 10 μM, hSNORF36a-transfected Cos-7 cells, n=2

| SMILES | EC50 (SNORF36a [1]) [nM] | response to light stimulus after pre-incubation (SNORF36a [2]) | response to light [3] | further results |
| --- | --- | --- | --- | --- |
| CC1=C(/C=C/C(C)=C\C=C\C(C)=C\C=O)C(C)(C)CCC1 [9-cis-retinal] | 152 | – | – | – |
| CC1=C(/C=C/C(C)=C/C=C/C(C)=C/C=O)C(C)(C)CCC1 [13-cis-retinal] | 477 | rapidly desensitizing Cl^− currents | did not respond to light | – |
| CC1=C(/C=C/C(C)=C/C=C/C(C)=C/C(=O)O)C(C)(C)CCC1 [ATRA, all-trans-retinoic acid] | – | rapidly desensitizing Cl^− currents | – | – |
| CC1=C(/C=C/C(C)=C/C=C/C(C)=C/C=O)C(C)(C)CCC1 [all-trans-retinal] | 263 | rapidly desensitizing Cl^− currents | fails to respond to light; also recorded: did not respond to light | 3H-IP accumulation [4]: not in vector-transfected cells; 3H-IP accumulation (SNORF36a [5]; SNORF36a-transfected Cos-7 cells exposed to lamp light, n=2): Concentration-dependent increase; 3H-IP levels (SNORF36a [5]; SNORF36a-transfected Cos-7 cells not exposed to light, n=1): did not change |
| CC(=O)/C=C/C1=C(C)CCCC1(C)C [β-ionone] | – | – | – | nature of the antagonism (SNORF36a [1]; 10 μM against all-trans-retinal and 9-cis-retinal, hSNORF36a-transfected Cos-7 cells): insurmountable; antagonism of 9-cis-retinal-induced Ca2+ mobilization (SNORF36a [1]; [6]): significantly antagonized; antagonism of all-trans-retinal-induced Ca2+ mobilization (SNORF36a [1]; [6]): significantly antagonized |
